These are literature values, as cited in patent US20100166887A1, “DIBENZO[b,e][1,4]DIAZEPINE MODULATORS OF DOPAMINE RECEPTORS, SEROTONIN RECEPTORS, ADRENERGIC RECEPTORS, ACETYLCHOLINE RECEPTORS, AND/OR HISTAMINE RECEPTORS” (Auspex Pharmaceuticals, Inc., priority 2008, published 2010).

The series addresses human ether-a-gogo related gene (hERG) potassium channel (Homo sapiens, UniProt Q12809). To be noted: Pearlstein et al., J. Med. Chem., 2003.

Chain of human ether-a-gogo related gene (hERG) potassium channel (Q12809 whole entry): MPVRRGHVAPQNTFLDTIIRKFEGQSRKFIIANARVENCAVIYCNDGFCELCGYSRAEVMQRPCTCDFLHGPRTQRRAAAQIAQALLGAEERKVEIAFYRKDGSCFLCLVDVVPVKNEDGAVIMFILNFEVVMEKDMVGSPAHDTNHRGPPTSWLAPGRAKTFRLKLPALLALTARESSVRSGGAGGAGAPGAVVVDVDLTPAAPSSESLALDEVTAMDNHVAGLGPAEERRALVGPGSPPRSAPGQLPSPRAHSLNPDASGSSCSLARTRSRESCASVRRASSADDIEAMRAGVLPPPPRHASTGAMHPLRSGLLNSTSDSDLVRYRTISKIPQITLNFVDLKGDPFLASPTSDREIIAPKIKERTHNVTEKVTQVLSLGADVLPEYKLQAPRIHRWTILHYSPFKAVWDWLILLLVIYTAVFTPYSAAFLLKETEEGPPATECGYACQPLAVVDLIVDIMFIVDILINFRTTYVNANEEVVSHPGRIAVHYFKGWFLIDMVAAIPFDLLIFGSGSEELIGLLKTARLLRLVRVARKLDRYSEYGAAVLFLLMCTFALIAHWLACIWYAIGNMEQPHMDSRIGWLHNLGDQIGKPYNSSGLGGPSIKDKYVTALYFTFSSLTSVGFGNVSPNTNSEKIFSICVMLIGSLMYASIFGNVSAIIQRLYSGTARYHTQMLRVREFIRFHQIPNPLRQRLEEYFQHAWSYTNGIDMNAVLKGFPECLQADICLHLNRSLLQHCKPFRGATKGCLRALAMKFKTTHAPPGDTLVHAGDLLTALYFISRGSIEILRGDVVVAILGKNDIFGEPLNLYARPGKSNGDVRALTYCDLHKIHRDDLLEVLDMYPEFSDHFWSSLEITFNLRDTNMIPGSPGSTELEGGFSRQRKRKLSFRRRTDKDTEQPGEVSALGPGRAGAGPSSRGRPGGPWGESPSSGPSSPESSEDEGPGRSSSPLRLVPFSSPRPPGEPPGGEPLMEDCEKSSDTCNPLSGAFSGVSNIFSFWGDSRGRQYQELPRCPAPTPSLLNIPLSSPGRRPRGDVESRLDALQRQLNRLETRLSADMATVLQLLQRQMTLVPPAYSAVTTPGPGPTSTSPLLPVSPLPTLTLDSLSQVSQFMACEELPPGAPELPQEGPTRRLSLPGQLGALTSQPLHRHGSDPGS

As to `Clc1ccc2c(c1)N=C(N1CCNCC1)c1ccccc1N2` [N-desmethyl clozapine, 8-Chloro-11-(4-piperazino)-5H-dibenzo[b,e][1,4]diazepine], the “inhibition of the hERG potassium channel” value was “inhibits”.
